ChEMBL document CHEMBL1140668, “Antifungal activity in triterpene glycosides from the sea cucumber Actinopyga lecanora” (2007)
≈ marks a conversion by molar mass, not a printed value.

How the values were obtained:
Candida albicans [1] = experiment: Antifungal activity against Candida albicans; assay type: functional
Cryptococcus neoformans [2] = experiment: Antifungal activity against Cryptococcus neoformans; assay type: functional
Sporothrix schenckii = experiment: Antifungal activity against Sporothrix schenckii; assay type: functional
Trichophyton benhamiae = experiment: Antifungal activity against Trichophyton mentagrophytes; assay type: functional, Arthroderma benhamiae
Aspergillus fumigatus = experiment: Antifungal activity against Aspergillus fumigatus; assay type: functional
Candida parapsilosis = experiment: Antifungal activity against Candida parapsilosis ATCC 22019; assay type: functional; conditions: Lodderomyces parapsilosis
Aspergillus terreus = experiment: Antifungal activity against Aspergillus terreus IMI 235704; assay type: functional
Talaromyces funiculosus = experiment: Antifungal activity against Penicillium funiculosum MTCC 287; assay type: functional
Penicillium ochrochloron = experiment: Antifungal activity against Penicillium ochrochloron MTCC 517; assay type: functional
Trichophyton rubrum = experiment: Antifungal activity against Trichophyton rubrum MTCC 296; assay type: functional
Candida albicans [3] = experiment: Antifungal activity against Candida albicans ATCC 14053; assay type: functional
Candida albicans [4] = experiment: Antifungal activity against Candida albicans ATCC 60193; assay type: functional
Candida albicans [5] = experiment: Antifungal activity against Candida albicans ATCC 66027; assay type: functional
Cryptococcus neoformans [6] = experiment: Antifungal activity against Cryptococcus neoformans ATCC 6603; assay type: functional
Candida albicans [7] = experiment: Antifungal activity against Candida albicans ATCC 10231; assay type: functional
Pichia kudriavzevii = experiment: Antifungal activity against Candida krusei ATCC 6258; assay type: functional
Candida albicans [8] = experiment: Antifungal activity against Candida albicans MTCC 183; assay type: functional
Candida albicans [9] = experiment: Antifungal activity against Candida albicans MTCC 227; assay type: functional
Cryptococcus neoformans [10] = experiment: Antifungal activity against Filobasidiella neoformans MTCC 1346; assay type: functional
Aspergillus flavus = experiment: Antifungal activity against Aspergillus flavus; assay type: functional

Row | SMILES | MIC (Candida albicans [1]) | MIC (Cryptococcus neoformans [2]) | MIC (Sporothrix schenckii) | MIC (Trichophyton benhamiae) | MIC (Aspergillus fumigatus) | MIC (Candida parapsilosis) | MIC (Aspergillus terreus) | MIC (Talaromyces funiculosus) | MIC (Penicillium ochrochloron) | MIC (Trichophyton rubrum) | MIC (Candida albicans [3]) | MIC (Candida albicans [4]) | MIC (Candida albicans [5]) | MIC (Cryptococcus neoformans [6]) | MIC (Candida albicans [7]) | MIC (Pichia kudriavzevii) | MIC (Candida albicans [8]) | MIC (Candida albicans [9]) | MIC (Cryptococcus neoformans [10]) | MIC (Aspergillus flavus)
1 | CC(=O)O[C@H]1C[C@@]2(C)C3=CCC4C(C)(C)[C@@H](O[C@@H]5OC[C@@H](O)[C@H](O)[C@H]5O)CC[C@]4(C)C3CCC23C(=O)O[C@@](C)(CCCC(C)C)[C@@H]13 (some centres not stated) | 50 µg/mL (≈ 77.3 µM) | 25 µg/mL (≈ 38.6 µM) | 25 µg/mL (≈ 38.6 µM) | 25 µg/mL (≈ 38.6 µM) | 50 µg/mL (≈ 77.3 µM) | 50 µg/mL (≈ 77.3 µM) | – | – | – | – | – | – | – | – | – | – | – | – | – | –
2 | OC(Cn1cncn1)(Cn1cncn1)c1ccc(F)cc1F [FLUCONAZOLE] | 0.5 µg/mL (≈ 1.63 µM) | 1 µg/mL (≈ 3.27 µM) | 1 µg/mL (≈ 3.27 µM) | 2 µg/mL (≈ 6.53 µM) | 2 µg/mL (≈ 6.53 µM) | 1 µg/mL (≈ 3.27 µM) | – | – | – | – | – | – | – | – | – | – | – | – | – | –
3 | CO[C@@H]1[C@@H](O)[C@H](O[C@@H]2[C@@H](O)[C@H](O[C@H]3[C@H](O)[C@@H](O)[C@H](O[C@H]4[C@H](O[C@H]5CC[C@]6(C)C7=C[C@H](O)[C@@]89C(=O)O[C@@](C)(C%10CCC(C)(C)O%10)[C@@]8(O)CC[C@@]9(C)[C@@H]7CC[C@H]6C5(C)C)OC[C@@H](OS(=O)(=O)[O-])[C@@H]4O)O[C@@H]3C)O[C@H](CO)[C@H]2O)O[C@H](CO)[C@H]1O.[Na+] (some centres not stated) [HOLOTHURIN A] | 50 µg/mL | 25 µg/mL | 25 µg/mL | 25 µg/mL | 50 µg/mL | – | – | – | – | – | – | – | – | – | – | – | – | – | – | –
4 | C[C@H]1O[C@@H](O[C@H]2[C@H](O[C@H]3CC[C@]4(C)C5=C[C@H](O)C67C(=O)O[C@@](C)(C8CCC(C)(C)O8)[C@@]6(O)CC[C@@]7(C)[C@@H]5CCC4C3(C)C)OC[C@@H](OS(=O)(=O)[O-])[C@@H]2O)[C@H](O)[C@@H](O)[C@@H]1O.[Na+] (some centres not stated) [HOLOTHURIN B] | 3.12 µg/mL | 3.12 µg/mL | 1.56 µg/mL | 1.56 µg/mL | 3.12 µg/mL | 6.25 µg/mL | 25 µg/mL | 12.5 µg/mL | 12.5 µg/mL | 3.12 µg/mL | 12.5 µg/mL | 12.5 µg/mL | 25 µg/mL | 3.12 µg/mL | 25 µg/mL | 12.5 µg/mL | 25 µg/mL | 12.5 µg/mL | 6.25 µg/mL | 12.5 µg/mL
